Measurements reported in US11083717B2, “Compositions and methods for drug sensitization of parasites” (The Texas A&M University System, priority 2015, dated 2021).
Values after ≈ are worked out from the molar mass of the structure shown. Like-named read-outs stand apart in the source and are kept apart here.

Columns and labels:
[1] = tested on: Cryptosporidium parvum (CP); test: Cell culture model of Cryptosporidium parvum infection in HCT-8 cells, real-time qRT-PCR; type: cell-based; settings: Cryptosporidium parvum; for MIC50: 44 h, CP in HCT-8 cells, 44 h infection, 50% reduction of parasite growth vs control, NA: not active, read-out: MIC50; for inhibition at 0.25 µM: HCT-8, @0.25 uM
Method: Fresh oocysts of CP (Iowa strain) were purchased from Bunch Grass Farm (Deary, Id.). Oocysts were further purified by a Percoll-based gradient centrifugation method and surface sterilized with 10% bleach for 7 min on ice, followed by washes with phosphate-buffered saline (PBS). An ileocecal colorectal adenocarcinoma cell line (HCT-8, ATCC #CCL-244) was used to host the growth of CP in vitro. One day before the inoculation, HCT-8 cells were seeded in 96-well plates (2.5×10^4/well) containing RPMI 1640 medium supplied with 10% fetal bovine serum (200 μL medium/well in all experiments) and allowed to grow overnight at 37° C. under 5% CO2 atmosphere until they reached ˜90% confluence. For drug testing, host cells were infected with 1.5×10^4 oocysts per well (ratio ˜1:3). After inoculation, parasite oocysts were allowed to undergo excystation and invasion into host cells for 3 h at 37° C. Free parasites and oocyst walls in the medium were removed from the plates by an exchange of the culture medium. Drugs at specified concentrations were added into the culture at this time point (immediately after the medium exchange). Parasite-infected cells were then incubated at 37° C. for additional 41 h (total 44 h infection time). At least two independent experiments were conducted for every experimental condition, each including two replicates drugs and eight replicates for negative controls.
Plates containing HCT-8 cells infected with CP for 44 h were first centrifuged for 10 min at 1000×g to ensure that free merozoites in the medium were firmly settled on the bottom of the wells. Medium was removed, followed by two gentle washes with PBS. For extracting total RNA, 200 μL of ice-cold Bio-Rad iScript qRT-PCR sample preparation reagent (lysis buffer) (Bio-Rad Laboratories, Hercules, Calif.) was added into each well. Plates were sealed with heat sealing films and subjected to vortex for 20 min. Plates were then incubated at 75° C. for 15 min, followed by centrifugation (5 min, 2000×g) to settle down cell debris. Supernatants were used immediately in subsequent qRT-PCR reactions or the plates were stored at −80° C. until use.
The levels of 18S rRNA transcripts from CP and host cells (referred to as Cp18S and Hs18S) were detected by real-time qRT-PCR method using qScrip™ one-step SYBR green qRT-PCR kit (Quanta Biosciences, Gaithersburg, Md.). Cell lysates prepared as described above were diluted by 100 and 2000 folds for detecting Cp18S and Hs18S transcripts, respectively. Reactions were performed in hard-shell 384-well skirted PCR plates (Bio-Rad Laboratories, Hercules, Calif.) (10 μL/well) containing 3 μL diluted cell lysate, 5 μL one-step SYBR green master mix, 0.2 μl RT master mix and the following primers: Cp18S-1011F and Cp18S-1185R primer pair for Cp18S rRNA, and Hs18S-1F and Hs18S-1R primer pair for Hs18S rRNA. Hs18S levels were used as controls and for normalization.
Real-time qRT-PCR reactions were performed by a Bio-Rad CFX384 Touch Real-Time PCR Detection System. The reactions started with synthesizing cDNA at 50° C. for 20 min, followed by 5 min at 95° C. to denature RNA-cDNA hybrids and deactivate reverse transcriptase, and 40 two-temperature thermal cycles of PCR amplification at 95° C., 10 sec and 58° C., 30 sec. At the end of PCR amplification, melting curve analysis was performed between 65° C. to 95° C. At least 2 technical replicates were included in qRT-PCR reactions for each sample.
The % inhibition (% inh @ (μM)) was calculated using a standard curve.

S. cerevisiae = test: in vitro; settings: Saccharomyces cerevisiae
human fibroblast = test: in vitro

SMILES	inhibition at 10 µM ([1]; HCT-8, read-out: % inh @ (μM))	concentrations at which not toxic, S. cerevisiae cytotoxicity testing (S. cerevisiae)	concentrations at which not toxic, human fibroblast cytotoxicity testing (human fibroblast)	MIC50 [1]	concentrations at which not toxic, human fibroblast cytotoxicity testing (human fibroblast; human)	inhibition at 0.25 µM [1]	inhibition at 10 µM ([1]; HCT-8, @10 uM, read-out: % inh @)	inhibition at 5 µM ([1]; HCT-8, @5 uM)	inhibition at 4 µM ([1]; HCT-8, @4 uM, read-out: % inh @)
CNC(=O)Cc1ccc(Oc2nc3cc(F)c(F)cc3s2)cc1F [NZ-411, 2-{4-[(5,6-difluoro-1,3-benzothiazol-2-yl)oxy]-2-fluorophenyl}-N-methylacetamide]	75.7%	≥ 100 µM	≥ 100 µM	–	–	–	–	–	–
CN(C)CCNC(=O)Cc1ccc(Oc2nc3ccc(F)cc3s2)cc1 [NZ-425, N-[2-(dimethylamino)ethyl]-2-{4-[(6-fluoro-1,3-benzothiazol-2-yl)oxy]phenyl}acetamide]	–	≥ 100 µM	–	0.25 to 0.5 µM (≈ 0.0934 to 0.187 µg/mL)	≥ 100 µM	–	–	–	–
O=C(Cc1ccc(Oc2nc3ccc(F)cc3s2)cc1)NCCO [NZ-426, 2-{4-[(6-fluoro-1,3-benzothiazol-2-yl)oxy]phenyl}-N-(2-hydroxyethyl)acetamide]	–	≥ 100 µM	–	0.25 to 1 µM (≈ 0.0866 to 0.346 µg/mL)	≥ 100 µM	–	–	–	–
NCCNC(=O)Cc1ccc(Oc2nc3ccc(F)cc3s2)cc1 [NZ-427, N-(2-aminoethyl)-2-{4-[(6-fluoro-1,3-benzothiazol-2-yl)oxy]phenyl}acetamide]	–	≥ 100 µM	–	< 0.25 µM	≥ 100 µM	71%	–	–	–
CNC(=O)Cc1c(F)cc(Oc2nc3ccc(F)cc3s2)cc1F [NZ-433, 2-{2,6-difluoro-4-[(6-fluoro-1,3-benzothiazol-2-yl)oxy]phenyl}-N-methylacetamide]	–	≥ 100 µM	–	~2 µM (≈ 0.705 µg/mL)	≥ 100 µM	–	–	–	–
NC(=O)CNC(=O)Cc1ccc(Oc2nc3ccc(F)cc3s2)cc1 [NZ-438, N-(carbamoylmethyl)-2-{4-[(6-fluoro-1,3-benzothiazol-2-yl)oxy]phenyl}acetamide]	–	≥ 100 µM	–	0.25 to 1 µM (≈ 0.0898 to 0.359 µg/mL)	≥ 100 µM	43%	–	–	–
O=C(O)Cc1ccc(Oc2nc3cc(F)c(F)cc3s2)cc1F [NZ-440, 2-{4-[(5,6-difluoro-1,3-benzothiazol-2-yl)oxy]-2-fluorophenyl}acetic acid]	–	≥ 100 µM	–	~10 µM (≈ 3.39 µg/mL)	≥ 100 µM	–	53%	–	–
O=C(Cc1ccc(Oc2nc3ccc(F)cc3s2)cc1F)NC1CC1 [NZ-446, N-cyclopropyl-2-{2-fluoro-4-[(6-fluoro-1,3-benzothiazol-2-yl)oxy]phenyl}acetamide]	–	≥ 100 µM	–	1 to 4 µM (≈ 0.36 to 1.44 µg/mL)	≥ 100 µM	–	–	–	–
CNC(=O)Cc1c(F)cc(Oc2nc3cc(F)c(F)cc3s2)cc1F [NZ-450, 2-{4-[(5,6-difluoro-1,3-benzothiazol-2-yl)oxy]-2,6-difluorophenyl}-N-methylacetamide]	–	≥ 100 µM	–	~2 µM (≈ 0.741 µg/mL)	≥ 100 µM	–	–	–	–
CNC(=O)Cc1c(F)cc(Oc2nc3ccc(Cl)cc3s2)cc1F [NZ-459, 2-{4-[(6-chloro-1,3-benzothiazol-2-yl)oxy]-2,6-difluorophenyl}-N-methylacetamide]	–	≥ 100 µM	–	1 µM (≈ 0.369 µg/mL)	≥ 100 µM	–	–	–	–
CNC(=O)Cc1c(F)cc(Oc2cnc3cc(Cl)ccc3n2)cc1F [NZ-460, 2-{4-[(6-chloroquinoxalin-2-yl)oxy]-2,6-difluorophenyl}-N-methylacetamide]	–	≥ 100 µM	–	–	≥ 100 µM	–	–	19%	–
CN1CCN(C(=O)Cc2ccc(Oc3nc4ccc(Cl)cc4s3)cc2)CC1 [NZ-464, 2-{4-[(6-chloro-1,3-benzothiazol-2-yl)oxy]phenyl}-1-(4-methylpiperazin-1-yl)ethan-1-one]	–	≥ 100 µM	–	0.05 to 0.27 µM (≈ 0.0201 to 0.109 µg/mL)	≥ 100 µM	–	–	–	–
CC(C(=O)N1CCN(C)CC1)c1ccc(Oc2nc3cc(F)c(F)cc3s2)cc1 (centres unmarked) [NZ-465, 2-{4-[(5,6-difluoro-1,3-benzothiazol-2-yl)oxy]phenyl}-1-(4-methylpiperazin-1-yl)propan-1-one]	–	≥ 100 µM	–	< 0.25 µM	≥ 100 µM	68%	–	–	–
CC(C(=O)N1CCN(C)CC1)c1ccc(Oc2nc3ccc(F)cc3s2)cc1 (centres unmarked) [NZ-466, 2-{4-[(6-fluoro-1,3-benzothiazol-2-yl)oxy]phenyl}-1-(4-methylpiperazin-1-yl)propan-1-one]	–	≥ 100 µM	–	0.05 to 0.1 µM (≈ 0.02 to 0.0399 µg/mL)	≥ 100 µM	–	–	–	–
CN1CCN(C(=O)Cc2ccc(Oc3nc4ccc(F)cc4s3)cc2F)CC1 [NZ-467, 2-{2-fluoro-4-[(6-fluoro-1,3-benzothiazol-2-yl)oxy]phenyl}-1-(4-methylpiperazin-1-yl)ethan-1-one]	–	≥ 100 µM	–	0.25 to 1 µM (≈ 0.101 to 0.403 µg/mL)	≥ 100 µM	–	–	–	–
O=C(Cc1ccc(Oc2nc3ccc(F)cc3s2)cc1)N1CCCCC1 [NZ-471, 2-{4-[(6-fluoro-1,3-benzothiazol-2-yl)oxy]phenyl}-1-(piperidin-1-yl)ethan-1-one]	–	≥ 100 µM	–	1 to 4 µM (≈ 0.37 to 1.48 µg/mL)	≥ 100 µM	–	–	–	89%
O=C(Cc1ccc(Oc2nc3ccc(F)cc3s2)cc1)N1CCNCC1 [NZ-472, 2-{4-[(6-fluoro-1,3-benzothiazol-2-yl)oxy]phenyl}-1-(piperazin-1-yl)ethan-1-one]	–	≥ 100 µM	–	~1 µM (≈ 0.371 µg/mL)	≥ 100 µM	–	–	–	–
CN1CCN(C(=O)Cc2ccc(Oc3nc4ccc(F)cc4s3)cc2)CC1 [NZ-476, 2-{4-[(6-fluoro-1,3-benzothiazol-2-yl)oxy]phenyl}-1-(4-methylpiperazin-1-yl)ethan-1-one]	–	≥ 100 µM	–	0.5 to 1 µM (≈ 0.193 to 0.385 µg/mL)	≥ 100 µM	–	–	–	–
CC(C(=O)N1CCNCC1)c1ccc(Oc2nc3ccc(F)cc3s2)cc1 (centres unmarked) [NZ-477, 2-{4-[(6-fluoro-1,3-benzothiazol-2-yl)oxy]phenyl}-1-(piperazin-1-yl)propan-1-one]	–	≥ 100 µM	–	0.05 to 0.17 µM (≈ 0.0193 to 0.0655 µg/mL)	≥ 100 µM	–	–	–	–
O=C(Cc1ccc(Oc2nc3ccc(Cl)cc3s2)cc1)N1CCNCC1 [NZ-479, 2-{4-[(6-chloro-1,3-benzothiazol-2-yl)oxy]phenyl}-1-(piperazin-1-yl)ethan-1-one]	–	≥ 100 µM	–	0.5 to 1 µM (≈ 0.194 to 0.388 µg/mL)	≥ 100 µM	–	–	–	–
O=C(Cc1ccc(Oc2nc3cc(F)c(F)cc3s2)cc1)N1CCCCC1 [NZ-481, 2-{4-[(5,6-difluoro-1,3-benzothiazol-2-yl)oxy]phenyl}-1-(piperidin-1-yl)ethan-1-one]	–	≥ 100 µM	–	1 to 4 µM (≈ 0.388 to 1.55 µg/mL)	≥ 100 µM	–	–	–	–
